Data on two compounds can be found in ChEMBL document CHEMBL1125524, “Adenosine A1 antagonists. 2. Structure-activity relationships on diuretic activities and protective effects against acute renal failure” (J Med Chem, 1992).

The test system of experiment [1] is Rattus norvegicus. As to the kind of experiment: Urea nitrogen concentration measured after intraperitoneal administration of 10 mg/kg of compound to rats(vehicle 144.1+/-6.1). It is filed as functional.
The subject of experiment [2] is Rattus norvegicus. In words: Percent inhibition of serum creatinine by the compound given as ratio of Cr value in treated to vehicle treated ones after intraperitoneal administration of 1 mg/kg of compound to rats(vehicle 3.75+/-0.34). In kind it is functional. The settings on record: ip.
Experiment [3] relates to Rattus norvegicus. In words: Ratio of sodium ion/potassium ion concentration in treated rats to that in control rats, at a peroral dose of 25 mg/Kg. In kind it is functional.
The test system of experiment [4] is Rattus norvegicus. In words: Urea nitrogen concentration measured after intraperitoneal administration of 1 mg/kg of compound to rats(vehicle 137.4+/-16.5). It is filed as functional.
The next experiment concerns the target Adenosine A2 receptor (Rattus norvegicus, UniProt P29276+P30543).
The test system of experiment [5] is Rattus norvegicus. As to the kind of experiment: Ratio of urinary excretion value (urinary volume) in treated rats to that in control rats, at a peroral dose of 25 mg/Kg. It is filed as functional, Urine.
Experiment [6] concerns Rattus norvegicus. In words: Ratio of urinary excretion value (Na+ concentration) in treated rats to that in control rats, at a peroral dose of 25 mg/Kg. It is filed as functional, Urine.
For another experiment, the target named is T1, Adenosine receptor A1 (Cavia porcellus, UniProt P47745).
T1 sequence (P47745 whole entry): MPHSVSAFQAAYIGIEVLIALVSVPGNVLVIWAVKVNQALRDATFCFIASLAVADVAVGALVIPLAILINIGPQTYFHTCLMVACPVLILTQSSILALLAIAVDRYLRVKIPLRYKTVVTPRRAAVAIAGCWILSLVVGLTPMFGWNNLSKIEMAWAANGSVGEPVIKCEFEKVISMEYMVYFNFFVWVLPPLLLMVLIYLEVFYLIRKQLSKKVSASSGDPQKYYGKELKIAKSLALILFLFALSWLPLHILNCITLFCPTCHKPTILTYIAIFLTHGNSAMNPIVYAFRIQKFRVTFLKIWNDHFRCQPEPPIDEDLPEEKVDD

The test system of experiment [7] is Rattus norvegicus. In words: Effect on urinary excretion potassium and sodium after oral administration of 25 mg/kg to rats(potassium and sodium excretion in control rat is 0.172+/-0.015). In kind it is functional, Urine.
In experiment [8] the test system is Rattus norvegicus. In words: Serum creatinine concentration measured after intraperitoneal administration of 10 mg/kg of compound to rats(vehicle 4.21+/-0.21). It is filed as functional.
For experiment [9], the system named is Rattus norvegicus. As to the kind of experiment: Percent inhibition of Urea nitrogen by the compound given as ratio of UN value in treated to vehicle treated ones after intraperitoneal administration of 10 mg/kg of compound to rats(vehicle 144.1+/-6.1). In kind it is functional. The settings on record: ip.
In experiment [10] the test system is Rattus norvegicus. As to the kind of experiment: Serum creatinine concentration measured after intraperitoneal administration of 1 mg/kg of compound to rats(vehicle 3.75+/-0.34). In kind it is functional.
Experiment [11] has as its system Rattus norvegicus. As to the kind of experiment: Oral diuretic activity was measured after oral administration of 25 mg/kg to rats(control volume is 0.74+/-0.07). In kind it is functional, Urine.
The test system of experiment [12] is Rattus norvegicus. In words: Percent inhibition of serum creatinine by the compound given as ratio of Cr value in treated to vehicle treated ones after intraperitoneal administration of 10 mg/kg of compound to rats(vehicle 4.21+/-0.21). In kind it is functional. The settings on record: ip.
For experiment [13], the system named is Rattus norvegicus. As to the kind of experiment: Percent inhibition of Urea nitrogen by the compound given as ratio of UN value in treated to vehicle treated ones after intraperitoneal administration of 1 mg/kg of compound to rats(vehicle 137.4+/-16.5). In kind it is functional. The settings on record: ip.
For experiment [14], the system named is Rattus norvegicus. As to the kind of experiment: Effect on urinary excretion potassium and sodium after oral administration of 25 mg/kg to rats(potassium and sodium excretion in control rat is 0.180+/-0.024). It is filed as functional, Urine.
Experiment [15] concerns Rattus norvegicus. As to the kind of experiment: Serum creatinine concentration measured after intraperitoneal administration of 1 mg/kg of compound to rats(vehicle 5.07+/-0.33). The settings on record: 1 mg/kg. It is filed as functional.
The species named for experiment [16] is Rattus norvegicus. The settings on record: dose 1 mg/kg, route intraperitoneal.
Experiment [17] concerns Rattus norvegicus. In words: Percent inhibition of Urea nitrogen by the compound given as ratio of UN value in treated to vehicle treated ones after intraperitoneal administration of 1 mg/kg of compound to rats(vehicle 195.8+/-14.4). The settings on record: 1 mg/kg. It is filed as functional.
The subject of experiment [18] is Rattus norvegicus. As to the kind of experiment: Ratio of urinary excretion value (urinary volume) in treated rats to that in control rats, at a peroral dose of 6.25 mg/Kg. In kind it is functional, Urine.
In experiment [19] the test system is Rattus norvegicus. In words: Urea nitrogen concentration measured after intraperitoneal administration of 1 mg/kg of compound to rats(vehicle 195.8+/-14.4). In kind it is functional. The settings on record: 1 mg/kg.
The test system of experiment [20] is Rattus norvegicus. In words: Oral diuretic activity was measured after oral administration of 25 mg/kg to rats(control volume is 1.00+/-0.09). It is filed as functional, Urine.
Experiment [21] deals with Rattus norvegicus. In words: Ratio of urinary excretion value (Na+ concentration) in treated rats to that in control rats, at a peroral dose of 6.25 mg/Kg. In kind it is functional, Urine.

Bounds are passed on as bounds.

Description for Adenosine receptor A1: Binding affinity against adenosine A1 receptor in guinea pig forebrain membranes using N6-[3H]cyclohexyladenosine as radioligand

Take `CCCn1c(=O)c2c(nc(C3CCCC3)n2C)n(CCC)c1=O`: the UN with Rattus norvegicus [1] was 107.9 mg/dL; in the experiment with Rattus norvegicus [4], 99.9 mg/dL. Besides, the figures for the inhibition in vivo at 1 mg/kg with Rattus norvegicus [2] and in the experiment with Rattus norvegicus [13] were 30% and 27%, respectively. For the same compound, in the experiment with Rattus norvegicus [3], the “Na+/K+” value is recorded as 1. The Ki at Adenosine A2 receptor was above 10 µM; on Adenosine receptor A1, 3.9 µM. For the same compound, the T/C is reported as 1.45 with Rattus norvegicus [5] and 1.07 with Rattus norvegicus [6]. This compound showed a Na in the experiment with Rattus norvegicus [7] of 0.184 m equiv 6hr-1 100g-1. The Cr with Rattus norvegicus [8] worked out at 3.07 mg/dL; in the experiment on Rattus norvegicus [10], 2.62 mg/dL. Besides, the inhibition in vivo at 10 mg/kg is 25% in the experiment with Rattus norvegicus [9] and 26% in the experiment on Rattus norvegicus [12]. In addition, the Urine volume in the experiment on Rattus norvegicus [11] was 1.07 ml 6hr-1 100g-1.

On to `CCCn1c(=O)c2nc(C3CC4CCC3C4)[nH]c2n(CCC)c1=O` (stereo in doubt; 20), for which, in the experiment with Rattus norvegicus [14], the Na is 0.372 m equiv 6hr-1 100g-1. Besides, the Cr in the experiment with Rattus norvegicus [15] was 2.54 mg/dL. For the same compound, the Inhibition was 50% in the experiment listed under Rattus norvegicus [16] and 49% in the experiment with Rattus norvegicus [17]. Moreover, the “Na+/K+” value in the experiment with Rattus norvegicus [3] worked out at 1.63. Moreover, the affinity on Adenosine A2 receptor corresponds to a Ki of 0.29 µM. Moreover, the T/C in the experiment with Rattus norvegicus [5] was 2.13; in the experiment on Rattus norvegicus [6] it was 2.06; in the experiment on Rattus norvegicus [18], 1.12; in the experiment with Rattus norvegicus [21] it was 1.27. The compound further showed a UN in the experiment on Rattus norvegicus [19] of 98.8 mg/dL. The same compound showed a Urine volume in the experiment with Rattus norvegicus [20] of 2.13 ml 6hr-1 100g-1.
